Values after ≈ are worked out from the molar mass of the structure shown.
Assays:
[1] = tested on: Colon 26 Advanced, Metastatic Tumor; assay: Murine Colon 26 advanced, metastatic tumor, increase in mean life span; assay type: in vivo, CD2F1 mice; details: days 5,9,13
Method: (§1) CD2F1 mice are injected i.p. with 5 x 10^5 tumor cells on Day 0 of the test. Drugs are administered i.p. on Days 5, 9, and 13 after the tumor implantation. Positive drug response is indicated by a more than 25% increase in the mean life span (% ILS), relative to placebo treated controls. Drugs are considered to be toxic when the mean life span of the drug treated animals is more than 15% shorter than placebo treated controls.

A2780 S cells = assay: Two cell line test procedure, in vitro cytotoxicity (sulforhodamine B), A2780 S; assay type: cell-based; details: Homo sapiens, A2780S, 48 hours exposure
Method: (§2) A2780 S and A2780 DDP cells [Biochemical and Molecular Properties of Cisplatin-resistant A2780 Cells Grown in Folinic Acid; Y. Lu, J. Hnan, and K. Scanlon, J. Biol. Chem., 263, 4891-4894, 1988.] are grown in RPMI 1640 medium containing 5% fetal calf serum, 50 µg/ml streptomycin, 50 units/ml penicillin, 50 µg/ml gentamycin, 0.03% L-glutamine, 1 nM estradiol, 1 nM testosterone, 5 µg/ml insulin, 5 µg/ml transferrin, and 5 ng/ml selenous acid, at 37°C, in a humidified atmosphere, containing 5% CO2. Experiments are done in the same media.
(§3) Cells are plated at the concentration of 5 x 10^4/ml on Day 0 of the experiment. On Day one cells are fixed with trichloroacetic acid and 5 ten-fold dilutions of tested compounds are added, in duplicates, to the remaining cells. On Day 3 (48 hours exposure to drugs) all cells are fixed with trichloroacetic acid, stained with 0.4% sulforhodamine B, and absorbency is read at 520 nm. The IC50 (concentration causing 50% inhibition) are determined for each drug.

A2780 DDP cells = assay: Two cell line test procedure, in vitro cytotoxicity (sulforhodamine B), A2780 DDP; assay type: cell-based; details: Homo sapiens; A2780 DDP cells (cisplatin-resistant), 48 hours exposure
Method: as §2, §3

P388 Leukemia = assay: Murine P388 leukemia, increase in mean life span; assay type: in vivo, CD2F1 mice; details: days 1,5,9
Method: as §1, with “with 1” for “with 5”, “x 10^6” for “x 10^5”, “Days 1,” for “Days”, “5,” for “5, 9,”, “and 9” for “and 13”

P388 = details: literature report; cited from earlier work

SMILES | % ILS ([1]; COLON 26, dose 100 mg/kg i.p.) | % ILS ([1]; COLON 26, dose 200 mg/kg i.p.) | % ILS ([1]; COLON 26, dose 300 mg/kg i.p.) | IC50 (A2780 S cells) [µg/mL] | IC50 (A2780 DDP cells) [µg/mL] | % ILS (P388 Leukemia; P388, dose 50 mg/kg i.p.) | % ILS (P388 Leukemia; P388, dose 100 mg/kg i.p.) | % ILS (P388 Leukemia; P388, dose 200 mg/kg i.p.) | also measured
COc1cccc2c1C(=O)c1c(O)c3c(c(O)c1C2=O)C[C@@](O)(C(=O)CO)C[C@@H]3O[C@H]1C[C@H](N)[C@H](O)[C@H](C)O1 [Adriamycin, reference compound] |  |  |  |  |  |  |  |  | % ILS ([1]; COLON 26, dose 4 mg/kg i.p.): +70%
CN(C)CCNC(=O)c1cccn2c(=O)c3cc(-c4cccnc4)ccc3nc12 [Example 06, N-[2-(Dimethylamino)ethyl]-11-oxo-2-(3-pyridinyl)-11H-Pyrido-[2,1-b]quinazoline-6-carboxamide] | +9% | +15% | +21% | 0.9 (≈ 2.32 µM) | 5 (≈ 12.9 µM) | +16% | +22% | +47% | 
CN(C)CCNC(=O)c1cccn2c(=O)c3cc(-c4ccncc4)ccc3nc12 [Example 07, N-[2-(Dimethylamino)ethyl]-11-oxo-2-(4-pyridinyl)-11H-pyrido-[2,1-b]quinazoline-6-carboxamide] | -15% | -52% | -58% | 0.7 (≈ 1.81 µM) | 5.6 (≈ 14.5 µM) | +20% | +29% | +49% | 
O=C(NCCN1CCCC1)c1cccn2c(=O)c3cc(-c4ccncc4)ccc3nc12 [Example 08, 11-Oxo-2-(4-pyridinyl)-N-[2-(1-pyrrolidinyl)ethyl]-11H-pyrido-[2,1-b]quinazoline-6-carboxamide] |  |  |  | 0.8 (≈ 1.93 µM) | 3.7 (≈ 8.95 µM) |  |  |  | 
CN(C)CCNC(=O)c1cccn2c(=O)c3cc(-c4cnc5ccccc5c4)ccc3nc12 [Example 10, N-[2-(Dimethylamino)ethyl]-11-oxo-2-(3-quinolinyl)-11H-pyrido[2,1-b]quinazoline-6-carboxamide] |  |  |  | 4.5 (≈ 10.3 µM) | 5.3 (≈ 12.1 µM) |  |  |  | 
CN(C)CCNC(=O)c1cccn2c(=O)c3ccc(-c4cccnc4)cc3nc12 [Example 15, N-[2-(Dimethylamino)ethyl]-11-oxo-3-(3-pyridinyl)-11H-pyrido-[2,1-b]quinazoline-6-carboxamide] | +15% | +64% | -3% | 0.6 (≈ 1.55 µM) | 0.7 (≈ 1.81 µM) | +8% | +18% | +37% | 
CN(C)CCNC(=O)c1cccn2c(=O)c3ccc(-c4ccncc4)cc3nc12 [Example 16, N-[2-(Dimethylamino)ethyl]-11-oxo-3-(4-pyridinyl)-11H-pyrido-[2,1-b]quinazoline-6-carboxamide] |  |  |  | 7 (≈ 18.1 µM) | 8.6 (≈ 22.2 µM) |  |  |  | 
CN(C)CCNC(=O)c1cccn2c(=O)c3ccccc3nc12 [I, N-[2-(dimethylamino)ethyl]-11-oxo-11H-pyrido[2,1-b]quinalzoline-6-carboxamide] |  |  |  |  |  |  |  |  | activity in a P388 mouse model (P388): inactive
CC[C@]1(O)C[C@H]2CN(CCc3c([nH]c4ccccc34)[C@@](C(=O)OC)(c3cc4c(cc3OC)N(C=O)[C@H]3[C@@](O)(C(=O)OC)[C@H](OC(C)=O)[C@]5(CC)C=CCN6CC[C@]43[C@@H]65)C2)C1 [Vincristine, reference compound] |  |  |  |  |  |  |  |  | % ILS (P388 Leukemia; P388, dose 0.8 mg/kg i.p.): +114%

— patent EP0944628B1, “HETERO-BIARYL-PYRIDOQUINAZOLINONE DERIVATIVES AS ANTI-CANCER AGENTS” (American Cyanamid Company, priority 1996, dated 1998)
